Where “and” joins values, the source holds several entries; their conditions need not be identical. Identical values can stand only once.
Tested on: 377384-186-R-J1-PDC complex spheroid viability
Experiment: Anticancer human tumor 377384-186-R-J1-PDC patient-derived pancreatic carcinoma cell line growth inhibition [CLK]
Conditions: for viability, T/C: stronger effect = lower value
Outline: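 Patient-derived tumor cells grown as complex spheroids with HUVEC endothelial cells and mesenchymal stem cells, treated with drug combinations. Concentrations descend in half-log steps from near clinical Cmax, or from 10 microM if Cmax unknown.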

[1] = curve of first compound, second compound 0.0316 µM
[2] = curve of first compound, second compound 0.1 µM
[3] = curve of first compound, second compound 0.316 µM
[4] = curve of first compound, second compound 1 µM
[5] = curve of first compound, second compound 3.16 µM
[6] = curve of first compound, second compound 10 µM
[7] = second compound 0.0316 µM, first compound 0.0316 µM
[8] = second compound 0.0316 µM, first compound 0.1 µM
[9] = second compound 0.0316 µM, first compound 0.316 µM
[10] = second compound 0.0316 µM, first compound 1 µM
[11] = second compound 0.0316 µM, first compound 3.16 µM
[12] = second compound 0.0316 µM, first compound 10 µM
[13] = second compound 0.1 µM, first compound 0.0316 µM
[14] = second compound 0.1 µM, first compound 0.1 µM
[15] = second compound 0.1 µM, first compound 0.316 µM
[16] = second compound 0.1 µM, first compound 1 µM
[17] = second compound 0.1 µM, first compound 3.16 µM
[18] = second compound 0.1 µM, first compound 10 µM
[19] = second compound 0.316 µM, first compound 0.0316 µM
[20] = second compound 0.316 µM, first compound 0.1 µM
[21] = second compound 0.316 µM, first compound 0.316 µM
[22] = second compound 0.316 µM, first compound 1 µM
[23] = second compound 0.316 µM, first compound 3.16 µM
[24] = second compound 0.316 µM, first compound 10 µM
[25] = second compound 1 µM, first compound 0.0316 µM
[26] = second compound 1 µM, first compound 0.1 µM
[27] = second compound 1 µM, first compound 0.316 µM
[28] = second compound 1 µM, first compound 1 µM
[29] = second compound 1 µM, first compound 3.16 µM
[30] = second compound 1 µM, first compound 10 µM
[31] = second compound 3.16 µM, first compound 0.0316 µM
[32] = second compound 3.16 µM, first compound 0.1 µM
[33] = second compound 3.16 µM, first compound 0.316 µM
[34] = second compound 3.16 µM, first compound 1 µM
[35] = second compound 3.16 µM, first compound 3.16 µM
[36] = second compound 3.16 µM, first compound 10 µM
[37] = second compound 10 µM, first compound 0.0316 µM
[38] = second compound 10 µM, first compound 0.1 µM
[39] = second compound 10 µM, first compound 0.316 µM
[40] = second compound 10 µM, first compound 1 µM
[41] = second compound 10 µM, first compound 3.16 µM
[42] = second compound 10 µM, first compound 10 µM
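Also: spheroids exposed to agents for 7 days before reading.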
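For viability, T/C in this document: luminescence signal used as a stand-in for viable cells.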

Work on `C#Cc1c(F)ccc2cc(O)cc(-c3ncc4c(N5CC6CCC(C5)N6)nc(OCC56CCCN5CC(F)C6)nc4c3F)c12` (stereo unspecified) + CNC(=O)c1ccc(Nc2nc(OC3CCCC3)c3c(-c4ccc5nc(C)oc5c4)c[nH]c3n2)c(OC)c1 yielded an IC50 [1] of under 31.6 nM, an IC50 [2] of under 31.6 nM and an IC50 [3] of under 31.6 nM. The IC50 [4] was under 31.6 nM, the IC50 [5] was under 31.6 nM and the IC50 [6] was under 31.6 nM. The viability, T/C [7] was 23.6%, the viability, T/C [8] was 11.7% and the viability, T/C [9] was 5.37%. It also gave a viability, T/C [10] of 4.27%, a viability, T/C [11] of 2.38% and a viability, T/C [12] of 1.98%. For the same compound, the viability, T/C [13] was 22%, the viability, T/C [14] was 8.53% and the viability, T/C [15] was 5.17%. The viability, T/C [16] was 2.73%, the viability, T/C [17] was 2.7% and the viability, T/C [18] was 2.19%. The viability, T/C [19] was 7.28%, the viability, T/C [20] was 4.75% and the viability, T/C [21] was 3.08%. It also gave a viability, T/C [22] of 2.69%, a viability, T/C [23] of 2.74% and a viability, T/C [24] of 2.17%. For the same compound, the viability, T/C [25] was 6.44%, the viability, T/C [26] was 3.72% and the viability, T/C [27] was 2.21%. It also gave a viability, T/C [28] of 1.64%, a viability, T/C [29] of 1.66% and a viability, T/C [30] of 1.12%. It also gave a viability, T/C [31] of 4.56%, a viability, T/C [32] of 3.31% and a viability, T/C [33] of 2.47%. The viability, T/C [34] was 2.25%, the viability, T/C [35] was 1.64% and the viability, T/C [36] was 1.59%. The viability, T/C [37] was 4.62%, the viability, T/C [38] was 2.7% and the viability, T/C [39] was 2.29%. It also gave a viability, T/C [40] of 1.95%, a viability, T/C [41] of 1.6% and a viability, T/C [42] of 2.24%.

`CC(Nc1ccc2c(c1)OCCn1cc(N3C(=O)OCC3C(F)F)nc1-2)C(N)=O` (stereo unspecified) + CN1CCN(c2cc(C(=O)Nc3cc4cc(-c5cnn(C)c5)ccc4cn3)ccn2)CC1 gave an IC50 [1] of 5170 nM, an IC50 [2] of 1460 nM and an IC50 [3] of under 31.6 nM. The IC50 [4] was under 31.6 nM, the IC50 [5] was under 31.6 nM and the IC50 [6] was under 31.6 nM. It also gave a viability, T/C [7] of 85.8%, a viability, T/C [8] of 83.1% and a viability, T/C [9] of 72.2%. It also gave a viability, T/C [10] of 69.4%, a viability, T/C [11] of 53.4% and a viability, T/C [12] of 43.4%. For the same compound, the viability, T/C [13] was 90%, the viability, T/C [14] was 79.3% and the viability, T/C [15] was 50.6%. It also gave a viability, T/C [16] of 57.4%, a viability, T/C [17] of 50.5% and a viability, T/C [18] of 39.4%. For the same compound, the viability, T/C [19] was 23.5%, the viability, T/C [20] was 23.6% and the viability, T/C [21] was 18.5%. The viability, T/C [22] was 19.8%, the viability, T/C [23] was 18.3% and the viability, T/C [24] was 18.4%. The viability, T/C [25] was 2.08%, the viability, T/C [26] was 1.88% and the viability, T/C [27] was 2.17%. It also gave a viability, T/C [28] of 1.6%, a viability, T/C [29] of 1.66% and a viability, T/C [30] of 2.21%. It also gave a viability, T/C [31] of 0.29%, a viability, T/C [32] of 0.96% and a viability, T/C [33] of 0.62%. It also gave a viability, T/C [34] of 0.3%, a viability, T/C [35] of 0.47% and a viability, T/C [36] of 0.64%. The viability, T/C [37] was 0.32%, the viability, T/C [38] was 1.36% and the viability, T/C [39] was 0.49%. The viability, T/C [40] was 0.37%, the viability, T/C [41] was 0.69% and the viability, T/C [42] was 0.37%.

`C=CC(=O)N1CCN(c2nc(=O)n(-c3c(C)ccnc3C(C)C)c3nc(-c4c(O)cccc4F)c(F)cc23)C(C)C1` (stereo unspecified) was tested, and the viability, T/C (compound 0.0316 µM) was 108% and 87.8%, the viability, T/C (compound 0.1 µM) was 83.9% and 127% and the viability, T/C (compound 0.316 µM) was 100% and 101%. For the same compound, the viability, T/C (compound 1 µM) was 119% and 105%, the viability, T/C (compound 3.16 µM) was 110% and 117% and the viability, T/C (compound 10 µM) was 84.3% and 90.5%. The IC50 (curve of compound) was over 10000 nM.

Compound `C=CC(=O)N1CCN(c2nc(=O)n(-c3c(C)ccnc3C(C)C)c3nc(-c4c(O)cccc4F)c(F)cc23)C(C)C1` (stereo unspecified) + CNC(=O)c1ccc(Nc2nc(OC3CCCC3)c3c(-c4ccc5nc(C)oc5c4)c[nH]c3n2)c(OC)c1 has an IC50 [1] of over 10000 nM, an IC50 [2] of 2760 nM and an IC50 [3] of under 31.6 nM. For the same compound, the IC50 [4] was under 31.6 nM, the IC50 [5] was under 31.6 nM and the IC50 [6] was under 31.6 nM. It also gave a viability, T/C [7] of 108%, a viability, T/C [8] of 111% and a viability, T/C [9] of 99.1%. The viability, T/C [10] was 111%, the viability, T/C [11] was 116% and the viability, T/C [12] was 91.7%. For the same compound, the viability, T/C [13] was 62.5%, the viability, T/C [14] was 64.7% and the viability, T/C [15] was 56.4%. It also gave a viability, T/C [16] of 68.6%, a viability, T/C [17] of 48.3% and a viability, T/C [18] of 36%. For the same compound, the viability, T/C [19] was 22.9%, the viability, T/C [20] was 18.9% and the viability, T/C [21] was 20.5%. It also gave a viability, T/C [22] of 25%, a viability, T/C [23] of 24% and a viability, T/C [24] of 21.4%. It also gave a viability, T/C [25] of 20.2%, a viability, T/C [26] of 20.1% and a viability, T/C [27] of 18.3%. The viability, T/C [28] was 21.3%, the viability, T/C [29] was 23.1% and the viability, T/C [30] was 21.5%. It also gave a viability, T/C [31] of 23.6%, a viability, T/C [32] of 23.5% and a viability, T/C [33] of 22%. The viability, T/C [34] was 24.5%, the viability, T/C [35] was 26.1% and the viability, T/C [36] was 23.1%. It also gave a viability, T/C [37] of 18.7%, a viability, T/C [38] of 18.3% and a viability, T/C [39] of 18.4%. For the same compound, the viability, T/C [40] was 20.3%, the viability, T/C [41] was 23.8% and the viability, T/C [42] was 19.7%.

For `COc1cccc2c1C(=O)c1c(O)c3c(c(O)c1C2=O)CC(O)(C(=O)CO)CC3OC1CC(N)C(O)C(C)O1` (stereo unspecified), the viability, T/C (compound 0.0316 µM) was 12.5% and 9.59%, the viability, T/C (compound 0.1 µM) was 7.59% and 5.12% and the viability, T/C (compound 0.316 µM) was 1.88% and 1.98%. For the same compound, the viability, T/C (compound 1 µM) was 0.76% and 0.47%, the viability, T/C (compound 3.16 µM) was 3.8% and 3.34% and the viability, T/C (compound 10 µM) was 8.38% and 5.34%. The IC50 (curve of compound) was under 31.6 nM.

With `CC(Nc1ccc2c(c1)OCCn1cc(N3C(=O)OCC3C(F)F)nc1-2)C(N)=O` (stereo unspecified) the viability, T/C (compound 0.0316 µM) was 86.6% and 85.8%, the viability, T/C (compound 0.1 µM) was 90.3% and 69.1% and the viability, T/C (compound 0.316 µM) was 59.9% and 53%. For the same compound, the viability, T/C (compound 1 µM) was 56.3% and 54%, the viability, T/C (compound 3.16 µM) was 49.6% and 35.9% and the viability, T/C (compound 10 µM) was 43.6% and 36.5%.

Reference: PubChem BioAssay AID2060616 (Molecular Pharmacology Branch, DTP, NCI, 2025)
